# Patent publication US6126909A, “Process and apparatus for the production of BI-212 and a use thereof” (Arch Development Corporation, priority 1999, dated 2000)
# Values joined by “and” are separate entries in the source; they are usually repeats but may differ in a detail not shown here. Equal entries are not always repeated.
# How the values were obtained:
# [1] = test system: Ehrlich-Lettre Ascites carcinoma cells; assay: In vitro irradiation survival (clonogenic), monolayer; type: cell-based; conditions: dose increment reducing survival to 37 percent
# Protocol: In vitro studies were carried out using three well known cell lines, the cells from which were exposed to radiation from: (1) an X-ray source; (2) P-32 chromic phosphate; and (3) Bi-212 chloride. The three cell lines that were used are V-79, which is a Chinese hamster lung fibroblast, Ehrlich-Lettre Ascites carcinoma (ATCC CCL 77), which is an ascites producing -tumor, and NIH:OVCAR-3 (ATCC HTB 161), which is a human ovarian adenocarcinoma. These well known cell lines are predictive of what happens in vivo. The cells were grown as monolayers and into spheroid formations and subsequently irradiated, as described herein. […]
# (§1) The cell lines were also irradiated using Bi-212. […] The filter was purged with 1 ml of distilled deionized water, and the radioactivity was assayed using a calibrated 3×3-in. […]
# (§2) Cells were exposed over a period of four hours. The dose (D) per microCurie was calculated and corrected for decay as follows: [formula] where V=volume in milliliters, and […]
# (§3) Following plating, survival measurements were taken for each of the irradiated cell samples. […] The plates were then stained with crystal violet and colonies greater than 50 cells were scored. The surviving fraction was then determined.
# (§4) Intrinsic radiosensitivity (Do) was calculated from the survival curves. […]
# [2] = Biodistribution after intraperitoneal instillation; type: in vivo, rabbit
# Protocol: In vivo studies were conducted to determine the distribution of Bi-212 produced using the above-noted process and to compare the Bi-212 distribution to the distribution of Pb-212 ferrous hydroxide in colloidal form. The in vivo studies were conducted using white, female New Zealand rabbits weighing about 4.5 kilograms ([…]) each. Studies were also conducted using rabbits to determine the toxicity levels, e.g., the maximum tolerated dose. Efficacy studies were conducted using 25 gram (gm) female Swiss-Webster mice inoculated with Ehrlich-Lettre Ascites carcinoma cells.
# The rabbits were first anesthetized by intravenous titration. A polyethylene catheter was then inserted into the lower right quadrant of the rabbits' abdominal cavities and a trace amount of technetium-99m pertechnetate was instilled to confirm that the catheter was correctly placed.
# (§5) Groups of rabbits were instilled with a varying amounts (correlating to varying activities) of Bi-212 that were prepared in accordance with the before-described process, neutralized to pH values of between 5.0 and 7.4, and had added thereto a quantity of normal saline to make a 200 cc sample. To compare the distribution of Bi-212, Pb-212 ferrous hydroxide was prepared in accordance with known methods. Rotmensch et al., Gynecol. Oncol., 35:297-300 (1989). Groups of rabbits were also instilled with the Pb-212 ferrous hydroxide preparation.
# After instillation, the rabbits were rotated and imaged with a gamma camera set at 2.6 MeV. Where localization of the nuclide was identified in the rabbits, the rabbits were sacrificed and the localized area was excised and photographed.
# (§6) Of the groups of rabbits instilled with the Bi-212 solution, a rabbit was imaged and necropsied at each of one-half hour, one hour and three hours after instillation. The percent injected activity (%IA) in each organ was measured to determine the distribution of the Bi-212(Table 6). To determine whether chelating to DTPA improved the retention of Bi-212 in the peritoneal fluid, a group of rabbits was instilled with Bi-212 DTPA, and was imaged and necropsied at three hours following instillation. The percent activity remaining in the peritoneal fluid was measured.
# [3] = test system: NIH:OVCAR-3 cells (spheroids); assay: In vitro irradiation survival, spheroids; type: cell-based, human; conditions: OVCAR-3 spheroids
# Protocol: In vitro studies were carried out using three well known cell lines, the cells from which were exposed to radiation from: (1) an X-ray source; (2) P-32 chromic phosphate; and (3) Bi-212 chloride. The three cell lines that were used are V-79, which is a Chinese hamster lung fibroblast, Ehrlich-Lettre Ascites carcinoma (ATCC CCL 77), which is an ascites producing -tumor, and NIH:OVCAR-3 (ATCC HTB 161), which is a human ovarian adenocarcinoma. These well known cell lines are predictive of what happens in vivo. The cells were grown as monolayers and into spheroid formations and subsequently irradiated, as described herein.
# The V-79 cells were maintained under exponential growth conditions in minimal essential medium (MEM) supplemented with 10 percent fetal bovine serum. The Ehrlich-Lettre Ascites carcinoma cells were maintained in 90 percent NCTC 109 supplemented with 10 percent fetal bovine serum. The NIH:OVCAR-3 cells were maintained in RPMI 1640 and 10 percent fetal bovine serum.
# To initiate the formation of the spheroids, cells at a concentration of about 500,000 cells per flask were seeded onto petri dishes base-cooked with 1 percent agar MEM without serum. After spheroids having a size of about 20 micrometers (μm) formed, the spheroids were transferred to spinner bottles and maintained for two to three weeks at a temperature of 37° C. in a CO2 incubator until they grew to 10 to 1000 μm. Prior to irradiation, the spheroids were sized and separated using a spheroid separation column.
# Cells from each of the cell lines were irradiated by subjecting the cells to X-ray radiation, P-32, and Bi-212. The X-ray source that was used is a General Electric 250 kvp Maxitron, 26 […] (mA) (HVL 1.5 mm Cu) operated at a dose rate of 1.11 Greys per minute (Gy/min). The cells, in both monolayer and spheroid form were exposed at room temperature and then immediately plated for survival.
# Cells in both monolayer and spheroid were exposed to P-32 chromic phosphate. The radiation dose to each sample was calculated as: […]
# After exposure, the cells were washed in phosphate-buffered saline (PBS) and immediately plated for survival.
# as §1, §2, §3, §4
# [4] = Retention of chelated and non-chelated Bi-212 in peritoneal fluid; type: in vivo, rabbit; conditions: rabbits, 3 hours after instillation
# Protocol: as §5, §6
# [5] = 1/2 hour after intraperitoneal instillation
# [6] = 1 hour after intraperitoneal instillation
# [7] = 3 hours after intraperitoneal instillation
structure (smiles),measurement,setting,value
"[212Bi] [Bi-212, bismuth-212]",D0 (intrinsic radiosensitivity),[1],0.65 Gy
same,Peritoneal fluid,[2]; [5],85.0 % IA and 70.3 % IA and 90.1 % IA
same,Stomach,[2]; [5],0.26 % IA and 0.34 % IA
same,Lower intestine & colon,[2]; [6],0.87 % IA
same,Peritoneal fluid,[2]; [6],85.7 % IA and 85.1 % IA and 88 % IA
same,Stomach,[2]; [6],0.09 % IA
same,Circulating blood,[2]; [7],3.4 % IA and 1.86 % IA and 2.96 % IA
same,Kidney,[2]; [7],2.15 % IA and 1.21 % IA and 2.10 % IA
same,Liver,[2]; [7],2.26 % IA and 2.25 % IA and 1.17 % IA
same,Lower intestine & colon,[2]; [7],7.14 % IA and 5.87 % IA and 9.14 % IA
same,Peritoneal fluid,[2]; [7],75.8 % IA and 80.2 % IA and 83.8 % IA
same,Reproductive organs,[2]; [7],0.53 % IA and 0.61 % IA and 0.59 % IA
same,Stomach,[2]; [7],0.90 % IA and 0.76 % IA and 0.59 % IA
same,Upper small intestine,[2]; [7],8.04 % IA and 6.63 % IA and 9.73 % IA
same,D0 (intrinsic radiosensitivity),[3]; dose to 37 percent survival,0.55 Gy
same,Relative biological effectiveness (RBE),[3]; relative to X-ray,2.81
same,% activity in blood volume,[4],4.5%
same,% activity in peritoneal fluid,[4],80%
same,% activity in urine,[4],6.0%
